How the values were obtained:
[1] = system: human prostate cancer cells (PC3); assay: Assessment of cytotoxicity by SRB assay, PC3; format: cell-based; conditions: androgen-independent metastatic human prostate cancer cells (PC3), 72 h, 0.01 μM to 100 μM
Experimental: (§1) The human prostate cancer cells (PC3) and human osteosarcoma cells (MG-63) were obtained from Nawah Scientific Inc. (Mokatam, Cairo, Egypt) and cultured in DMEM (Dulbecco's modified eagle's medium), Gibco, USA, supplemented with fetal bovine serum (FBS) at a concentration of 10% and 100 U/mL of penicillin and streptomycin (PS). The Cells were incubated at 37° C. in a humidified environment that contained 5% CO2.
(§2) Cells were seeded in 96-well plates as aliquots of 100 μL cell suspension and incubated in a complete media for 24 h. afterward, cells were treated with N′-(1-naphthoyloxy)-2-(benzo[d]thiazol-2-yl)acetimidamide at diverse concentrations ranging from 0.01 μM to 100 μM for 72 h. Then, cells were fixed at 4° C. for one hour with 150 μL of 10% trichloroacetic acid (TCA). After washing the cells five times with distilled water, 70 μL of sulforhodamine (SRB) solution (0.4% w/v) was added and incubated for 10 min at room temperature in a dark place. […] Then, 150 μL of Tris pH 10.5 (10 mM) was added, and the absorbance was measured at 540 nm using a BMG LABTECH®-FLUOstar Omega microplate reader (Ortenberg, Germany). Half maximal inhibitory concentrations (IC50) values were calculated for each experiment using GraphPad Prism 6 software. […]
(§3) The inhibition was calculated using the following equation: Inhibition %=100−Average Viability

Bovine Serum Albumin = Bovine Serum Albumin (Bos taurus, UniProt P02769); assay: Bovine Serum Albumin Assay (BSA), inhibition of protein denaturation; format: biochemical; conditions: BSA 0.4% w/v, pH 6.4, 72° C. for 10 minutes, 20-100 μg/mL, turbidity at 660 nm
Experimental: In vitro-inflammatory activities of the tested samples were determined using a modified method of the BSA assay reported by Williams et al. BSA solution (0.4%, w/v) was prepared in Tris Buffered Saline. The pH was adjusted to 6.4 with glacial acetic acid. Different dilutions of 20, 40, 60, 80, and 100 μg/mL of the stock solutions were added to test tubes containing 1 mL of 0.4%, w/v BSA buffer solution. Both negative (solvent) and positive (aspirin) controls were assayed in a similar manner. The solutions were then heated in a water bath at 72° C. for 10 minutes and cooled for 20 minutes under laboratory conditions. The turbidity of the solutions (level of protein precipitation) was measured at 660 nm in Spectrophotometer (V-770 UV-Visible/NIR Spectrophotometer).
The percentage inhibition of precipitation (protein denaturation) was determined relative to the negative control using the following equation:
[formula] % Anti-Denaturation Activity=% Inhibition of Protein Denaturation=% Anti-inflammatory Activity

[2] = system: human osteosarcoma cells (MG-63); assay: Assessment of cytotoxicity by SRB assay, MG-63; format: cell-based; conditions: osteosarcoma (MG-63) cells, 72 h, 0.01 μM to 100 μM
Experimental: as §1, §2, §3

Sequence of Bovine Serum Albumin (P02769 25-607): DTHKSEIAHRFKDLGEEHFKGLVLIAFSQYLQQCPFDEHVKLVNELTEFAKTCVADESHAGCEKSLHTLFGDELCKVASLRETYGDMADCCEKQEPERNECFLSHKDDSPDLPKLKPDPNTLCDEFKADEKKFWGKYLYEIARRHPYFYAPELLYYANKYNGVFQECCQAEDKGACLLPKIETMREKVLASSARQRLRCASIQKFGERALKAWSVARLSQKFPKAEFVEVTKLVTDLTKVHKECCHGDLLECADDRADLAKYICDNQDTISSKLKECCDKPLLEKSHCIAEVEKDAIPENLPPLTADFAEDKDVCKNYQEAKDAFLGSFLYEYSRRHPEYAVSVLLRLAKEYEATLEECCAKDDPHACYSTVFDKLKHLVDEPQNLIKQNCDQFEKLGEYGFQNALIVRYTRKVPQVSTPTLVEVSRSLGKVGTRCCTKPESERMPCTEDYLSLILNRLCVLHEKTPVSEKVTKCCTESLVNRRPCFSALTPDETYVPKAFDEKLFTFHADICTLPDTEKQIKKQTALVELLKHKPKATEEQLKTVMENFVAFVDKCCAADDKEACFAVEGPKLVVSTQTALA

Compound: O=C(O)c1cn(C2CC2)c2cc(N3CCN(Cn4nc(/N=C/c5cccc(Br)c5)sc4=S)CC3)c(F)cc2c1=O [7-(4-((5-(3-bromobenzylideneamino)-2-thioxo-1,3,4-thiadiazol-3(2H)-yl)methyl)piperazin-1-yl)-1-cyclopropyl-6-fluoro-4-oxo-1,4-dihydroquinoline-3-carboxylic acid]
- antiproliferative activity against PC3 cells [1]: excellent antiproliferative activities
- melting point: 251 to 253 °C
- in vitro anti-inflammatory activity (inhibition of protein denaturation) (Bovine Serum Albumin): considerable anti-inflammatory effect
- antiproliferative activity against MG-63 cells [2]: excellent antiproliferative activities
